Assay results taken from US9833455B2, “Preparation and methods of use for ortho-aryl 5-membered heteroaryl-carboxamide containing multi-targeted kinase inhibitors” (Spacefill Enterprises LLC, priority 2011, dated 2017).
Read-outs that look alike come from different tables or passages of the source. Values belong to the compound of their own block, whether it stands above or below them.

Tests used:
panel of kinases = experiment: Nanosyn kinase panel profiling (panels of 29, 220, 230, 250 kinases), whole panel; format: biochemical; conditions: for activity against any of the kinases tested: panel of 29 selected kinases
Description: “Inhibiting kinase activity” means to decrease the production of an phosphor-peptide by a particular kinase that can be separated by analytical techniques. […] Profiling data in this application were determined using these techniques at Nanosyn Inc. IC50 data were provided by Reaction Biology Inc using a P33 radiolabeled kinase assay.
These compounds were profiled against a panel of 230 kinases (Nanosyn Inc.).
A total of 15 new inhibitors were designed, prepared, and evaluated against a panel of 29 selected kinases in order to explore the applicability, SAR trends, and the tunability of this scaffold that could be imposed but this unique geometry, Table 21. Inhibitors I-1 to 1-12 all retained the 2-CF3-5-(4-F-phenyl) imidazole-4-carboxamide scaffold previously described (Deitrich, 2010), but explored different Hinge-Gatekeeper Motifs (HGM).
To further test the breadth of applicability and ability to achieve selectivity with inhibitors that share this scaffold geometry, I-11 and I-12 were evaluated against a larger panel of 220 high interest kinases, Table-23.

RAF1 = biological target: T1, RAF1 (Homo sapiens, UniProt P04049); conditions: 1 μM, duplicate, without preincubation; cited from earlier work
T1 construct: literature Ambit Biosciences

PRKCE = biological target: T2, PRKCE (Homo sapiens, UniProt Q02156); conditions: 1 μM, duplicate, without preincubation; cited from earlier work
T2 construct: literature Ambit Biosciences
T2 sequence (Q02156 1-737): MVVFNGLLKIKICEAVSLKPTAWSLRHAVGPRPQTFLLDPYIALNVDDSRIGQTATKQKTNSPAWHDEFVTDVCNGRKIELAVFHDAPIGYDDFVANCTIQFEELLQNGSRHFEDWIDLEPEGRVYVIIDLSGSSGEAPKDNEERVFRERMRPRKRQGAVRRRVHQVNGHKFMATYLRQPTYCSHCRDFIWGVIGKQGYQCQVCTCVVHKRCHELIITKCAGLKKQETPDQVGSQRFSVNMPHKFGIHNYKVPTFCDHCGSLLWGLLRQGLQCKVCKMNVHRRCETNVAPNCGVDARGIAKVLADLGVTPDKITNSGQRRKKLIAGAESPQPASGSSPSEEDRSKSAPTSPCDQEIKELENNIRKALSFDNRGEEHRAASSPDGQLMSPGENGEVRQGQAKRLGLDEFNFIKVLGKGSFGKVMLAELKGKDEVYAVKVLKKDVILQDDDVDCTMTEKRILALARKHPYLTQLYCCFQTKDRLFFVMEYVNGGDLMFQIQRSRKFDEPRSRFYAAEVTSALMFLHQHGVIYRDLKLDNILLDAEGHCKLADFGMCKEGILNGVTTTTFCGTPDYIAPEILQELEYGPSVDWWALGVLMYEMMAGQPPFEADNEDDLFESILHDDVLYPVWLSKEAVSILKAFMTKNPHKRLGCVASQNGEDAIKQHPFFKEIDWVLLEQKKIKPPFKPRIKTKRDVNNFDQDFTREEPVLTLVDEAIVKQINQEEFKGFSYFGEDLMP

CSF1R = biological target: T3, CSF1R (Homo sapiens, UniProt P07333); conditions: 1 μM, duplicate, without preincubation; cited from earlier work
T3 construct: literature Ambit Biosciences
T3 sequence (P07333 20-972): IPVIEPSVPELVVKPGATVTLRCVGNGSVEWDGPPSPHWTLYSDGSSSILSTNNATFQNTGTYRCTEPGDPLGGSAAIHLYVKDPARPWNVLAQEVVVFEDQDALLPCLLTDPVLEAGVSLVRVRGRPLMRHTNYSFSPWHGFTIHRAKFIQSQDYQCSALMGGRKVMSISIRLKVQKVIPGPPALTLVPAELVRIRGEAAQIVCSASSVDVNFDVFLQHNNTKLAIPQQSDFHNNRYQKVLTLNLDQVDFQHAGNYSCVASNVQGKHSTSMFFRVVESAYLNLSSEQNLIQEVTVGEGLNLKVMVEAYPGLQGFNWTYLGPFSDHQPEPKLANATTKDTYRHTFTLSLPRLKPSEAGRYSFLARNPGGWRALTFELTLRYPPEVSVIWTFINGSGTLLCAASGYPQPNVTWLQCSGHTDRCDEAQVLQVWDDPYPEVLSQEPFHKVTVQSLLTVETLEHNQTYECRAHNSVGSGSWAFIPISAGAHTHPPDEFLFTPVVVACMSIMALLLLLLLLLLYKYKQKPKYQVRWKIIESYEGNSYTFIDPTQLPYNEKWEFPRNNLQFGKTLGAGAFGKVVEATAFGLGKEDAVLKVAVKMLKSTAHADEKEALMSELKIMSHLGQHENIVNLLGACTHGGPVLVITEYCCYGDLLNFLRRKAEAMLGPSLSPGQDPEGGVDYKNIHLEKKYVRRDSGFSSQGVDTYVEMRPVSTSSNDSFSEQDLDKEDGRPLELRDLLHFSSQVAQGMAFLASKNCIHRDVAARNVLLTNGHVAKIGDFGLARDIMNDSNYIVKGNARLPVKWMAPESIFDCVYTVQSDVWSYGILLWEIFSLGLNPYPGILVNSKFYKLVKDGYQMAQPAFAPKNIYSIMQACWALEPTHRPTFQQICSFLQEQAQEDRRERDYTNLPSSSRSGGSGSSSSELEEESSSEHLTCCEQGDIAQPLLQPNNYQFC

BRAF(V600E) [1] = biological target: T4, BRAF(V600E) (Homo sapiens, UniProt P15056, V600E); parameters: literature Ambit Biosciences; conditions: 1 μM, duplicate, without preincubation; cited from earlier work
T4 sequence (P15056 whole entry V600E): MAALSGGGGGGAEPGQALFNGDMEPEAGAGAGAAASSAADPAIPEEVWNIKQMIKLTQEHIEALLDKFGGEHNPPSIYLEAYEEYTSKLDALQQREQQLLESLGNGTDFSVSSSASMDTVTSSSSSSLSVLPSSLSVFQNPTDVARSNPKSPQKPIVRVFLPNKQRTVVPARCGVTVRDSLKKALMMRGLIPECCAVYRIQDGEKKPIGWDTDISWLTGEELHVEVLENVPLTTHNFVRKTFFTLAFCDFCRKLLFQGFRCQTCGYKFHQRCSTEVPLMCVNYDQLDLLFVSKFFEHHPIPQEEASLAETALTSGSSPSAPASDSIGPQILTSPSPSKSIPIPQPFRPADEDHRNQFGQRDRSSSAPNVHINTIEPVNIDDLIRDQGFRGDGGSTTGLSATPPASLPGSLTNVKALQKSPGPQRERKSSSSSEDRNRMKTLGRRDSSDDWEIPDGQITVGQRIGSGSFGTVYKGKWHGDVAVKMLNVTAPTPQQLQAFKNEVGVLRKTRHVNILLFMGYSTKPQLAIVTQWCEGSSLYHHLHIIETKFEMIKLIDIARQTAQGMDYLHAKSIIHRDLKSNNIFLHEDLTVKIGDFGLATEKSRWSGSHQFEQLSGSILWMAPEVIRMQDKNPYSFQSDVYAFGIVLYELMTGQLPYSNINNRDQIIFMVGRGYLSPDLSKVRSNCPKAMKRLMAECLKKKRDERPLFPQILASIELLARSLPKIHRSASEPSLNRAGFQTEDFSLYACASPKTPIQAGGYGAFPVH

ULK2 = biological target: T5, ULK2 (Homo sapiens, UniProt Q8IYT8); conditions: 1 μM, duplicate, without preincubation; cited from earlier work
T5 construct: literature Ambit Biosciences

PDGFRA = biological target: T6, PDGFRA (Homo sapiens, UniProt P16234); conditions: 1 μM, duplicate, without preincubation; cited from earlier work
T6 construct: literature Ambit Biosciences

JAK2 (catalytic) = biological target: T7, JAK2 (catalytic) (Homo sapiens, UniProt O60674); conditions: 1 μM, duplicate, without preincubation; cited from earlier work
T7 construct: catalytic; literature Ambit Biosciences

p38-beta = biological target: T8, p38-beta (Homo sapiens, UniProt Q15759); conditions: 1 μM, duplicate, without preincubation; cited from earlier work
T8 construct: literature Ambit Biosciences
T8 sequence (Q15759 whole entry): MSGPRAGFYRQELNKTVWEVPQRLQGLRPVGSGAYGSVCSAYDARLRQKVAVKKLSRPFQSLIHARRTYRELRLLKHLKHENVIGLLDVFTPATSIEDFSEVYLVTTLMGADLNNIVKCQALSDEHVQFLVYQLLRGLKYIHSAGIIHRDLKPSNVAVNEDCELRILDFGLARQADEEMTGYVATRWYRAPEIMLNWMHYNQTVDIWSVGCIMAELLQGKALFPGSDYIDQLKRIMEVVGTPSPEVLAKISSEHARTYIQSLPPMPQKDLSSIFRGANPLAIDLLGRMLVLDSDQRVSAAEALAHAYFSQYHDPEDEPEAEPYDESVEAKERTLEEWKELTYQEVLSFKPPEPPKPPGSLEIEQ

BRAF = biological target: T9, BRAF (Homo sapiens, UniProt P15056); conditions: 1 μM, duplicate, without preincubation; cited from earlier work
T9 construct: literature Ambit Biosciences
T9 sequence (P15056 whole entry): as the sequence (P15056 whole entry V600E) above, with E600V counted along it

p38-alpha = biological target: T10, p38-alpha (Homo sapiens, UniProt Q16539); conditions: 1 μM, duplicate, without preincubation; cited from earlier work
T10 construct: literature Ambit Biosciences
T10 sequence (Q16539 whole entry): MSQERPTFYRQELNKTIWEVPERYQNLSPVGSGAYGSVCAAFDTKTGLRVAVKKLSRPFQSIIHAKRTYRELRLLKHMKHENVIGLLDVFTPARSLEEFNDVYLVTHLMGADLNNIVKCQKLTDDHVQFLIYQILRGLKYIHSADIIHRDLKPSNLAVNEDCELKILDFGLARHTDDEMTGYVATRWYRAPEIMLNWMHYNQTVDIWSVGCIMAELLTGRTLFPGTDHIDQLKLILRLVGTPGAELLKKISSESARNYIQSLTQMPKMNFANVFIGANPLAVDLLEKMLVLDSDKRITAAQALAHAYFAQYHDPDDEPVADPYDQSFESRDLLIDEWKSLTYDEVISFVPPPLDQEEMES

DCAMKL1 = biological target: T11, DCAMKL1 (Homo sapiens, UniProt O15075); conditions: 1 μM, duplicate, without preincubation; cited from earlier work
T11 construct: literature Ambit Biosciences
T11 sequence (O15075 1-740): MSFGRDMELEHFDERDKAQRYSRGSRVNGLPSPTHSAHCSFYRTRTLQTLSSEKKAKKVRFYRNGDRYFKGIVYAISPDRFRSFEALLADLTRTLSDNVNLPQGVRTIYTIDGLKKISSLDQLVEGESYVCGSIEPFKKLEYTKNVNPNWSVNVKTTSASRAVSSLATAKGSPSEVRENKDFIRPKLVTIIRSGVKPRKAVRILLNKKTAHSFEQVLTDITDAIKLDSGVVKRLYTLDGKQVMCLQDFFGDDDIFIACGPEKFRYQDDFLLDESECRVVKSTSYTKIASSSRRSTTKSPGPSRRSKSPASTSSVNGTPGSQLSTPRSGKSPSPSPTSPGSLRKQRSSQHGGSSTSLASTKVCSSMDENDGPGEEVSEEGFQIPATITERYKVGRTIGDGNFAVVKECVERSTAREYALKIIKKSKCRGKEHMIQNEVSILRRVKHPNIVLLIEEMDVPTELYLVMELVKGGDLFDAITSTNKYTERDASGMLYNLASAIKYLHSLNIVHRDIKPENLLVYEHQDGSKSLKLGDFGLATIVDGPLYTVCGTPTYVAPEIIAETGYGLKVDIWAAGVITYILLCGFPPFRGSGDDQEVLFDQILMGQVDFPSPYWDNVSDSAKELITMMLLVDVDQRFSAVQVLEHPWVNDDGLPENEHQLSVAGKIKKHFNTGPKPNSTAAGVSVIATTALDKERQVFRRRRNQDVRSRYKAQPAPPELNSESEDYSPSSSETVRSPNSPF

PLK4 = biological target: T12, PLK4 (Homo sapiens, UniProt O00444); conditions: 1 μM, duplicate, without preincubation; cited from earlier work
T12 construct: literature Ambit Biosciences
T12 sequence (O00444 1-970): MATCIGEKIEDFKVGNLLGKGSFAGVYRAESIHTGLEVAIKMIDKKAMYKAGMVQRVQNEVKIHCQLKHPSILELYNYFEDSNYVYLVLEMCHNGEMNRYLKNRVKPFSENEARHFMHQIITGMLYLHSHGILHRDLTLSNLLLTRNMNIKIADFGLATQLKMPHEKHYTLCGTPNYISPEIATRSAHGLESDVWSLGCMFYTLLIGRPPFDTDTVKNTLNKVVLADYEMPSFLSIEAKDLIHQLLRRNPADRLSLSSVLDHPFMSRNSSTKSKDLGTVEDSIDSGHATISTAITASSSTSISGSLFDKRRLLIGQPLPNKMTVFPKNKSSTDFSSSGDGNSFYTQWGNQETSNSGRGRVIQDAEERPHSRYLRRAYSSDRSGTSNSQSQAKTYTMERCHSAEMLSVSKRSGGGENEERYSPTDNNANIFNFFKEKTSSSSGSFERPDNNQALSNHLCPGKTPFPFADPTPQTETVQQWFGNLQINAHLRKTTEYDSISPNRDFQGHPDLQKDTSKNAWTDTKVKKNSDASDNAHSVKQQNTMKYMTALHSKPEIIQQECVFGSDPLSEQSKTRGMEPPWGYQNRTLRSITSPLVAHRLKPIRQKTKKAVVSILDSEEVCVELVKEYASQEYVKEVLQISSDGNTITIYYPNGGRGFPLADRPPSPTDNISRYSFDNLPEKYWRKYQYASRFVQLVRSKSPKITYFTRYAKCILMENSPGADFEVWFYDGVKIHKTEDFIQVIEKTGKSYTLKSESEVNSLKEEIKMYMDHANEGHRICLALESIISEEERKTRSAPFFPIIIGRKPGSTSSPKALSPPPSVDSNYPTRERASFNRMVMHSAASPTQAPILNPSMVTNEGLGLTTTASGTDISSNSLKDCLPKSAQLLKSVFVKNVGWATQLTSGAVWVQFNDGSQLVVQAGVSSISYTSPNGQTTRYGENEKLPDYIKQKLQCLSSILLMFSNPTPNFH

PDGFRB = biological target: T13, PDGFRB (Homo sapiens, UniProt P09619); conditions: 1 μM, duplicate, without preincubation; cited from earlier work
T13 construct: literature Ambit Biosciences

IKK-beta = biological target: T14, IKK-beta (Homo sapiens, UniProt O14920); conditions: 1 μM, duplicate, without preincubation; cited from earlier work
T14 construct: literature Ambit Biosciences

BTK = biological target: T15, BTK (Homo sapiens, UniProt Q06187); conditions: 1 μM, duplicate, without preincubation; cited from earlier work
T15 construct: literature Ambit Biosciences
T15 sequence (Q06187 whole entry): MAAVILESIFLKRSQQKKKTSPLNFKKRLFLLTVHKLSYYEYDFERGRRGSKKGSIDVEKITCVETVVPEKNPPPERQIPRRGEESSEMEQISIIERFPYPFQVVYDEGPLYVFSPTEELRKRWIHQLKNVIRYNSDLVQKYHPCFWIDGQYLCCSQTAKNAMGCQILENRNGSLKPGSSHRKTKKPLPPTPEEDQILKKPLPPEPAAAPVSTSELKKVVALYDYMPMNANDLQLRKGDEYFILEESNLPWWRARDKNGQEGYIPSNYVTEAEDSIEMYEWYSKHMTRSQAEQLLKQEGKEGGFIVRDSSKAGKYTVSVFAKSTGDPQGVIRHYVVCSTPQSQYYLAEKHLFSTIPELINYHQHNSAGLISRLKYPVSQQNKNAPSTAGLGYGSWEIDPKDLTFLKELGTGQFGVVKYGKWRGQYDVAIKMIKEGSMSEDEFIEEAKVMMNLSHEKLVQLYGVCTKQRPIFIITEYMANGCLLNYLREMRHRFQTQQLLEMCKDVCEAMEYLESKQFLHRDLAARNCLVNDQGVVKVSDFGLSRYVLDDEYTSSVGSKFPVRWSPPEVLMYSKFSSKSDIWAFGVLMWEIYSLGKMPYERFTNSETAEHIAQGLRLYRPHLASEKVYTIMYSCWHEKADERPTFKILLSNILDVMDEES

CDK11 = biological target: T16, CDK11 (Homo sapiens, UniProt Q9BWU1); conditions: 1 μM, duplicate, without preincubation; cited from earlier work
T16 construct: literature Ambit Biosciences
T16 sequence (Q9BWU1 whole entry): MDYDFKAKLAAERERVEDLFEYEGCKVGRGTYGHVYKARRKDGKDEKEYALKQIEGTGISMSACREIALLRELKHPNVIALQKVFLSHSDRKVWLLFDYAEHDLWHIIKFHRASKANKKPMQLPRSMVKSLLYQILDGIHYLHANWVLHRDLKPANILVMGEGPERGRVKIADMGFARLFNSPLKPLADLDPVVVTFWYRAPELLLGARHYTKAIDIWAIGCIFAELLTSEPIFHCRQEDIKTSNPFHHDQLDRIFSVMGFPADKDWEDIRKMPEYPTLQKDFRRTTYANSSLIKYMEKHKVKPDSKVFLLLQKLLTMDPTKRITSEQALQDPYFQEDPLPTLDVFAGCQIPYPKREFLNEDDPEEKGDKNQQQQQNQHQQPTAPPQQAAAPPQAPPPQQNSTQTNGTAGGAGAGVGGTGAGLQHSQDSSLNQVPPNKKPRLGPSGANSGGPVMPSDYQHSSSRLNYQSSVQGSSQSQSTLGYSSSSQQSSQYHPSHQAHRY

CDK7 = biological target: T17, CDK7 (Homo sapiens, UniProt P50613); conditions: 1 μM, duplicate, without preincubation; cited from earlier work
T17 construct: literature Ambit Biosciences
T17 sequence (P50613 whole entry): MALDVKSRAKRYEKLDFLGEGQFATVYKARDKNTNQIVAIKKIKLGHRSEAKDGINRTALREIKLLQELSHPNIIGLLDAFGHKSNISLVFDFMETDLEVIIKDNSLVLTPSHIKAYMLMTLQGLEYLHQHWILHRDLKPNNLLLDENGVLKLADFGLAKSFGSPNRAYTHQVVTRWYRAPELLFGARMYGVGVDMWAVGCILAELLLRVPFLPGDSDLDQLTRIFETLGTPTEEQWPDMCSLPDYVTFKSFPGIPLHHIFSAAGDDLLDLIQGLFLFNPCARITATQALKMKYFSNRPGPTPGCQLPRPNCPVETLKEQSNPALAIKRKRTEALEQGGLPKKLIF

KIT = KIT (Homo sapiens, UniProt P10721); conditions: 1 μM, duplicate, without preincubation; cited from earlier work
Chain of KIT (P10721 26-976): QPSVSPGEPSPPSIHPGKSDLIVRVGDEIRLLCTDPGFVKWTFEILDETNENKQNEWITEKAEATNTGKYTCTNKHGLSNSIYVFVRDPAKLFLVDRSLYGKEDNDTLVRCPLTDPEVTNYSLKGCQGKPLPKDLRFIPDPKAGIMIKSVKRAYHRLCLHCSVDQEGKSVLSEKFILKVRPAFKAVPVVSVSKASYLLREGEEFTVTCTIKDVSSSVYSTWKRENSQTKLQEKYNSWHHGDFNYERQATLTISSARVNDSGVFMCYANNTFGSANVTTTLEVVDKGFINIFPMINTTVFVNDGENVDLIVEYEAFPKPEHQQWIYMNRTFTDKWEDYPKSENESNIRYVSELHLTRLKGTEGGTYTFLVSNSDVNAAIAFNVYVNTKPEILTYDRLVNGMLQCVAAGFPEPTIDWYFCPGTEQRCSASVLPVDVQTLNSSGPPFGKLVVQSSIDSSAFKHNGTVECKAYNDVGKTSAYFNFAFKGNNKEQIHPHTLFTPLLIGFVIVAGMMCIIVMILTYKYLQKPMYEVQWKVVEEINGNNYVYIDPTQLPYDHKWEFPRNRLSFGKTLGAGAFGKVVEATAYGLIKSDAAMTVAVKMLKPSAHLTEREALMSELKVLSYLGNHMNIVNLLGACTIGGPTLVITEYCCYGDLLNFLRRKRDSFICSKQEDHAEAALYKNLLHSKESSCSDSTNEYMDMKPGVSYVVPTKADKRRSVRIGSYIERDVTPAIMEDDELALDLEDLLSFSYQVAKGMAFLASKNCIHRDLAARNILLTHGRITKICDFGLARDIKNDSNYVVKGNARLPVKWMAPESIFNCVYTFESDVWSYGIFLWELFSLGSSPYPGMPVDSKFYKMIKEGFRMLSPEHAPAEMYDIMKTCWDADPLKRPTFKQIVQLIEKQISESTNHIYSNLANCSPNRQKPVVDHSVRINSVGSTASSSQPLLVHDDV

BRAF(V600E) [2] = biological target: T4, BRAF(V600E); experiment: Real time kinetic experiments; format: biochemical
Description: (§1) To test both our binding mode hypothesis and to see if these structural differences could be taken exploited to impart selectivity and potency improvements, I-13, in which the lipophilic 2-trifluoromethy substituent on imidazole ring of inhibitor KIN-035, was replaced by the polar 2-methylsulfonyl substitutent. […] To address this issue, real time kinetic experiments were performed.

wild type B-Raf = wild type B-Raf (Homo sapiens, UniProt P15056); experiment: LanthaScreen assay, IC50; format: biochemical
Chain of wild type B-Raf (P15056 whole entry): as the sequence (P15056 whole entry V600E) above, with E600V counted along it
Description: as §1

BRAF(V600E) [3] = biological target: T4, BRAF(V600E); experiment: LanthaScreen assay, side by side IC50 comparison; format: biochemical
Description: as §1

Structure (SMILES): Cc1ccc(NC(=O)c2nc(C(F)(F)F)[nH]c2-c2ccc(F)cc2)cc1NC(=O)c1c[nH]c2ncccc12 [Inhibitor I-11, 1H-7-Azaindole-3-carboxylic acid (5-{[5-(4-fluoro-phenyl)-2-trifluoromethyl-3H-imidazole-4-carbonyl]-amino}-2-methyl-phenyl)-amide]
selectivity in kinase panel (panel of kinases; panel of 220 kinases, 5 μM): extremely selective for p38-α

Structure (SMILES): Cc1ccc(NC(=O)c2[nH]c(C(F)(F)F)nc2-c2ccc(F)c(F)c2)cc1Nc1ccc2ncn(C)c(=O)c2c1 [KIN-057]
inhibition of RAF1 (RAF1): XXXX (XXXX > 90% @ 1 μM) | inhibition of PRKCE (PRKCE): X (X > 25% @ 1 μM) | inhibition of CSF1R (CSF1R): X (X > 25% @ 1 μM) | inhibition of BRAF(V600E) (BRAF(V600E) [1]): XXX (XXX > 75% @ 1 μM) | inhibition of ULK2 (ULK2): X (X > 25% @ 1 μM) | inhibition of PDGFRA (PDGFRA): X (X > 25% @ 1 μM) | inhibition of JAK2 (catalytic) (JAK2 (catalytic)): X (X > 25% @ 1 μM) | inhibition of p38-beta (p38-beta): X (X > 25% @ 1 μM) | inhibition of BRAF (BRAF): XXX (XXX > 75% @ 1 μM) | inhibition of p38-alpha (p38-alpha): XXX (XXX > 75% @ 1 μM) | inhibition of DCAMKL1 (DCAMKL1): X (X > 25% @ 1 μM) | inhibition of PLK4 (PLK4): X (X > 25% @ 1 μM) | inhibition of PDGFRB (PDGFRB): XXX (XXX > 75% @ 1 μM) | inhibition of IKK-beta (IKK-beta): X (X > 25% @ 1 μM) | inhibition of BTK (BTK): X (X > 25% @ 1 μM) | inhibition of CDK11 (CDK11): XX (XX > 50% @ 1 μM) | inhibition of CDK7 (CDK7): X (X > 25% @ 1 μM) | inhibition of KIT (KIT): XXX (XXX > 75% @ 1 μM)

Structure (SMILES): O=C(Nc1ccc(Oc2ccnc3[nH]c(=O)[nH]c23)cc1)c1nc(C(F)(F)F)[nH]c1-c1ccc(F)cc1 [Inhibitor I-12, 4-(4-{[5-(4-Fluoro-phenyl)-2-trifluoromethyl-3H-imidazole-4-carbonyl]-amino}-phenoxy)-pyridine-2,3-benzimidazolone carboxylic acid methylamide]
number of panel kinases at >25% inhibition (panel of kinases; panel of 220 kinases, 5 μM): 72 kinases | number of panel kinases with greater than 50% inhibition (panel of kinases; panel of 220 kinases, 5 μM): 45 kinases

Structure (SMILES): Cc1ccc(NC(=O)c2nc(S(C)(=O)=O)[nH]c2-c2ccc(F)cc2)cc1Nc1ccc2ncn(C)c(=O)c2c1 [Inhibitor I-13, 3-(3-methyl-4-oxo-3,4-dihydroquinazolin-6-ylamino)-4-methyl-analine, 5-(4-Fluorophenyl)-2-(methylsulfonyl)-1H-imidazole-4-carboxamide]
real time kinetic data with B-Raf(V600E) (BRAF(V600E) [2]): consistent with either extremely tight binding or irreversible inhibition | real time kinetic data with B-Raf(V600E) (BRAF(V600E) [2]; listed as SFE-0013): consistent with extremely tight or irreversible inhibition | IC50 (wild type B-Raf): ~500 nM | more potent against the mutant verses wild type B-Raf (BRAF(V600E) [3]; B-Raf(V600E) vs wild type B-Raf): approximately 80 fold | increase in potency vs KIN-0035 (BRAF(V600E) [3]; LanthaScreen assay, IC50 ratio): 10 fold | IC50 (BRAF(V600E) [3]; LanthaScreen assay, side by side comparison): 6.6 nM | change of IC50 value with preincubation (BRAF(V600E) [3]; several hour preincubation period): appeared to decrease over a several hour preincubation period

Further lines, results first:

activity against any of the kinases tested (panel of kinases): no significant activity
Structure (SMILES): O=C(Nc1ccccn1)c1cc(NC(=O)c2nc(C(F)(F)F)[nH]c2-c2ccc(F)cc2)ccc1Cl [Inhibitor I-1, 5-(4-Fluoro-phenyl)-2-trifluoromethyl-3H-imidazole-4-carboxylic acid [4-chloro-3-(pyridin-2-ylcarbamoyl)-phenyl]-amide]

activity against any of the kinases tested (panel of kinases): no significant activity
Structure (SMILES): O=C(Nc1ccncc1)c1cc(NC(=O)c2nc(C(F)(F)F)[nH]c2-c2ccc(F)cc2)ccc1Cl [Inhibitor I-2, 5-(4-Fluoro-phenyl)-2-trifluoromethyl-3H-imidazole-4-carboxylic acid [4-chloro-3-(pyridin-4-ylcarbamoyl)-phenyl]-amide]
